Where two headings read alike, the source gives them in different places.
Tests used:
[1] = system: embryonic-like stem cells derived from placenta; experiment: Immunostaining for CD34, CD45 and CD105 in cultured placental stem cells (ratios to TNC, Table 3); type: cell-based, human; conditions: for CD34/TNC / CD45/TNC / CD105/TNC: placental conditioned media, 1 μg/ml, 14 days in culture; for numbers of cells expressing CD34, CD45 and CD 105: summary of Table 3
Procedure: (§1) The cells were scored for the expression of CD34 (a marker of early hematopoietic progenitor cells; also an endothelial cell marker), CD45 (a marker of all hematopoietic cells except erythrocytes), CD105 (a marker of proliferating endothelial cells), smooth muscle cell (SMC)-specific myosin heavy chain, nestin ([…]), and glial fibrillary acidic protein (GFAP). Ratios of CD34 cells/TNC (Total Number of Cells), CD45 cells/TNC and CD105 cells/TNC were also determined.
In another experiment, the results of which are summarized in Table 3, embryonic-like stem cells derived from placenta were cultured, using the conditions described in the umbilical vessel ring assay described above, in the presence of placenta-conditioned medium with DMSO (negative control), Thalomid™, Actimid™ or Revimid™. After 14 days in culture, the cells were then immunostained for expression of CD34+, CD45+ and CD 105+.

[2] = system: human umbilical cord vessel rings; experiment: Human angiogenesis assay (umbilical artery vessel rings in Matrigel); type: cell-based; conditions: for Microvessel Growth (% Inhibition): vs 0.1% DMSO, three weeks, average of two rings
From the text: Fresh human umbilical cords were collected by trained medical personnel under fill donor informed consent from local hospitals. The cords were transported and treated within three hours. Umbilical cords and vessel lumens were rinsed with chilled basal nutrient medium. The artery was removed from the cord using mechanical means, forceps and small surgical scissors in an aseptic field. The vessel was cleaned of connective tissue and vessel rings were cut cross-wise in a length of 1 mm. The rings were placed into EGM-2 medium (Clonetics Corp.) in a 50 ml conical bottom tube and stored at 4° C. Six-well tissue culture plates were covered with […] of Matrigel and allowed to gel for 30-45 min at 37° C., under 5% CO2. The vessel rings were rinsed in EGM-2 medium and placed on the Matrigel-coated wells, covered with additional 250 μl Matrigel, and allowed to gel for 30-45 min at 37° C. (see FIG. 6). The vessels were cultured for 24 hours in 4 ml of EGM-2 to allow the tissue to adapt to its new environment. After 24 hours incubation, the rings were treated either with 0.1% DMSO as control, or different concentrations of compounds (thalidomide or CC4047). Culture medium was changed twice per week for total of three weeks.
The effects of compounds on cultured vessel rings were compared with the effect of DMSO on vessel rings. The results were analyzed using Image-Pro® Plus software (MediaCybernetics, Inc. Carlsbad, Calif.).
These experiments were done in duplicates and the results are the average of two rings in same experiment. A different concentration of Fumagillin is used as positive control in this experiment.

rat aortic rings = experiment: Rat aortic angiogenesis assay; type: cell-based, Sprague Dawley rats; conditions: for mean microvessel growth (% of control): without microsomes
Procedure: Twelve well tissue culture grade plates were covered with 250 μl of Matrigel and allowed to gel for 30-45 min at 370 C, 5% Co2. Thoracic aortas were excised from eight to ten week old male Sprague Dawley rats and the fibroadipose tissue was removed. The aortas were sectioned into 1 mm long sections, rinsed eight times with EGM-2 (Clonetics Corp), placed on the Matrigel coated wells, covered with additional 250 μl Matrigel, and allowed to gel for 30-45 min at 370 C. The rings were cultured for 24 hours in 2 ml of EGM-2. After 24 hours, recombinant murine endostatin was reconstituted in EBM and added as a single treatment on day 1. Thalidomide was added at different concentrations (1 μg/ml, 5 μg/ml, 10 μg/ml, 50 μg/ml and 100 μg/ml) in the presence or absence of rabbit microsomes as noted in the Table 5. Aortic rings were photographed on days.

[3] = system: embryonic-like stem cells derived from placenta; experiment: Total vessel area/field and branching/bifurcation of cultured placental embryonic-like stem cells (Table 4); type: cell-based, human; parameters: key to Branching/Bifurcation (+/−): +: a branch or bifurcation was observed; −: no branch or bifurcation was observed; conditions: for branching and/or bifurcation exhibited by the cells / total vessel area/field covered by the cells: summary of Table 4
Procedure: In another experiment, the results of which are summarized in Table 4, embryonic-like stem cells derived from placenta were cultured, using the culture conditions described above, and in the presence of EGCF, DMSO, Thalomid™, Actimid™ or Revimid™.
A “+” means that a branch or bifurcation was observed and a “−” means that no branch or bifurcation was observed. […] See also FIGS. 3A, 3B

[4] = system: embryonic-like stem cells derived from placenta; experiment: Marker expression of cultured embryonic-like stem cells (staining score, Table 2); type: cell-based, human; parameters: key to SMC-specific Myosin HC / GFAP / CD34+ / CD45+: −: no staining; +/−: <20% staining; +: 20-50% staining; ++: 50-75% staining; +++: >75% staining; conditions: for CD34+ / CD45+ / GFAP / Nestin / SMC-specific Myosin HC: placental conditioned media, fourteen days of culture; for numbers of cells expressing CD34, CD45 and smooth muscle cell (SMC)-specific myosin heavy chain / numbers of cells expressing nestin and glial fibrillary acidic protein (GFAP): summary of Table 2
Procedure: The following experiments evaluated the effects of Thalomid™, Actimid™ and Revimid™ on the morphological differentiation of embryonic-like stem cells derived from placenta. The morphological differentiation of cultured embryonic-like stem cells was evaluated after fourteen days of culture in the presence of placental conditioned medium and with DMSO (control), EGCF, Thalomid™, Actimid™ or Revimid™.
Embryonic-like stem cells were isolated from placenta as described above in Section 5.4. The embryonic-like stem cells were cultured using the culture conditions described above.
as §1
In Table 2, the scoring was as follows: • −: no staining; +/−: <20% staining+: 20-50% staining; ++: 50-75% staining; +++: >75% staining.

[5] = system: human umbilical cord blood vessel rings; conditions: 10^−5 M, compared with the DMSO (0.5%) diluent control; cited from earlier work
[6] = system: human umbilical cord blood vessel rings; experiment: Umbilical cord blood vessel ring angiogenesis assay (validation with known modulators); type: cell-based
Procedure: Blood vessels, approximately 1-2 mm in diameter and 1-2 cm in length, were excised from human umbilical cord within 12 hours of birth. Both arterial and venous tissue were harvested and maintained separately. The vessels were placed in DMEM containing 2.5 μg/ml of fungizone and cut into 1-2 mm length fragments using fine dissecting forceps and iridectomy scissors. Vessel fragments were freed of residual clots and soaked in DMEM before use. Dissecting and sectioning of vessels were performed with the aid of a surgical microscope. Similar angiogenic responses were obtained from blood vessels of venular and arterial origin but for each assay, vessel fragments from only one vessel were used. See FIG. 6 for a graphic depiction of the assay setu.
Assays were performed in petri dishes (10 to 25 cm^2) or 6-well culture plates (Costar, Cambridge, Mass.), which were prepared by pre-coating with either 0.1% gelatin (Sigma, St. Louis, Mo.) or MATRIGEL® (BD Biosciences) to form a matrix. Following the coating of the plates, 50 μl of human cord blood plasma in 5 mL of DMEM were added to each dish/well to form a surface film over the matrix. The film was allowed to set at 37° C. for 90 minutes, after which it was removed, leaving a thin film in each dish/well. Vessel ring segments were then positioned at central locations within the plate or dish. Petri dishes were divided into quarters, and vessel ring segments were placed in the center of each of the quadrants. In the case of 6-well culture plates, a vessel ring segment was placed in each of the wells. Vessel ring segments generally adhered to the coated matrix within 12 hours, allowing for the addition of media without risk of detachment due to buoyancy. […]
Test compounds were administered at the beginning of culture, once the adherent stem cells were selected, or once the vessel rings are determined to have adhered to the matrix. Each test compound is evaluated at various concentrations to enable generation of a dose response analysis. […]
Vessel outgrowth was scored as a quantitative comparison to the positive and negative controls, using the following notations: − negative; +/− minimally above negative control; + low level of outgrowth; ++ moderate level of outgrowth; +++ high level of outgrowth; ++++ positive control level of outgrowth. Vessel outgrowth was also scored morphometrically as the maximal distance of vessel sprout growth in microns from the vessel ring, and as the total area of endothelial cell coverage (ECA)/area of vessel ring (VRA).
Following culture for 14-21 days, as described above, angiogenesis was quantified and compared with control cultures. […]

| Compound | CD34/TNC [1] | CD45/TNC [1] | CD105/TNC [1] | numbers of cells expressing CD34, CD45 and CD 105 [1] | Branching/Bifurcation (+/−) ([3]; 1 μg/ml) | Total Vessel Area/Field (% Coverage) ([3]; 1 μg/ml) | Branching/Bifurcation (+/−) ([3]; 10 μg/ml) | Total Vessel Area/Field (% Coverage) ([3]; 10 μg/ml) | branching and/or bifurcation exhibited by the cells [3] | total vessel area/field covered by the cells [3] | CD34+ ([4]; 1 μg/mL) | CD45+ ([4]; 1 μg/mL) | GFAP ([4]; 1 μg/mL) | Nestin ([4]; 1 μg/mL) | SMC-specific Myosin HC ([4]; 1 μg/mL) | CD34+ ([4]; 10 μg/mL) | CD45+ ([4]; 10 μg/mL) | GFAP ([4]; 10 μg/mL) | Nestin ([4]; 10 μg/mL) | inhibition of angiogenesis ([6]; 100 μg/ml) | other results |
| --- | --- | --- | --- | --- | --- | --- | --- | --- | --- | --- | --- | --- | --- | --- | --- | --- | --- | --- | --- | --- | --- |
| Nc1cccc2c1C(=O)N(C1CCC(=O)NC1=O)C2=O (centres unmarked) [Actimid, 4-(Amino)-2-(2,6-dioxo(3-piperidyl))-isoindoline-1,3-dione] | 0.04 | 0.94 | 26.3 | decrease | − | 11.3 +/− 2.8 % Coverage | − | 6.7 +/− 4.1 % Coverage | decreases the branching and/or bifurcation exhibited by the cells | decrease in the total vessel area/field covered by the cells | − | − | − | ++ (50-75% staining) | − | − | − | + (20-50% staining) | +++ (>75% staining) |  | Microvessel Growth (% Inhibition) ([2]; 0..1 μM): 50.1 % Inhibition; Microvessel Growth (% Inhibition) ([2]; 1 μM): 85 % Inhibition; Microvessel Growth (% Inhibition) ([2]; 10 μM): 100 % Inhibition; formation of microvessel outgrowth ([2]; compared with DMSO treated samples): inhibited the formation of microvessel outgrowth in a dose dependent manner; mean microvessel growth (% of control) (rat aortic rings; 10 μg/ml): 14.2 % of control; mean microvessel growth (% of control) (rat aortic rings; 100 μg/ml): 0.00 % of control; need of rabbit microsomes for inhibition of vessel formation (rat aortic rings; summary of Table 5): did not require microsomes for inhibition of vessel formation; SMC-specific Myosin HC ([4]; 10 μg/mL): −; numbers of cells expressing CD34, CD45 and smooth muscle cell (SMC)-specific myosin heavy chain [4]: decreased; numbers of cells expressing nestin and glial fibrillary acidic protein (GFAP) [4]: increased |
| Nc1cccc2c1CN(C1CCC(=O)NC1=O)C2=O (centres unmarked) [Revimid, 3-(4-amino-1-oxo-1,3-dihydro-isoindol-2-yl)-piperidine-2,6-dione] | .22 | 1.71 | 17.3 | decrease | − | 13.5 +/− 7.7 % Coverage | − | 12.1 +/− 7.4 % Coverage | decreases the branching and/or bifurcation exhibited by the cells | decrease in the total vessel area/field covered by the cells | − | − | + (20-50% staining) | + (20-50% staining) | − | − | − | +++ (>75% staining) | ++ (50-75% staining) |  | SMC-specific Myosin HC ([4]; 10 μg/mL): −; numbers of cells expressing CD34, CD45 and smooth muscle cell (SMC)-specific myosin heavy chain [4]: decreased; numbers of cells expressing nestin and glial fibrillary acidic protein (GFAP) [4]: increased |
| C[C@]12CCC(=O)C=C1CC[C@@H]1[C@@H]2[C@@H](O)C[C@@]2(C)[C@H]1CC[C@]2(O)C(=O)CO [hydrocortisone] |  |  |  |  |  |  |  |  |  |  |  |  |  |  |  |  |  |  |  |  | inhibition of angiogenesis [5]: partially inhibited angiogenesis |
| Cc1ccc(C(=O)Nc2ccc(S(=O)(=O)O)c3cc(S(=O)(=O)O)cc(S(=O)(=O)O)c23)cc1NC(=O)c1cccc(NC(=O)Nc2cccc(C(=O)Nc3cc(C(=O)Nc4ccc(S(=O)(=O)O)c5cc(S(=O)(=O)O)cc(S(=O)(=O)O)c45)ccc3C)c2)c1 [suramin] |  |  |  |  |  |  |  |  |  |  |  |  |  |  |  |  |  |  |  | virtually totally inhibited angiogenesis | inhibition of angiogenesis ([6]; 10 μg/ml): the inhibitory activity of this compound is lost |
| heparin |  |  |  |  |  |  |  |  |  |  |  |  |  |  |  |  |  |  |  | small but significant inhibition of angiogenesis |  |
| low molecular weight heparin |  |  |  |  |  |  |  |  |  |  |  |  |  |  |  |  |  |  |  | small but significant inhibition of angiogenesis |  |

Reference: patent US20050148034A1, “Methods for identification of modulators of angiogenesis, compounds discovered thereby, and methods of treatment using the compounds” (priority 2002, published 2005)
